# Reference: PubChem BioAssay AID248 (DTP/NCI, 2004)
# Where “and” joins values, the source holds several entries; their conditions need not be identical. Identical values can stand only once. Toxic doses and inconclusive results are not listed.
# System: L1210 leukemia ip in BDF1 mice, survival T/C
# Experiment: NCI In Vivo Anticancer Drug Screen. Data for tumor model L1210 Leukemia (intraperitoneal) in B6D2F1 (BDF1) mice
# Details: endpoint: mean survival time, higher = longer survival
# Method in brief: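 Tumor cells were implanted, animals were treated, and survival was followed. The result divides the treated measurement by the vehicle-control measurement.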
smiles,measurement,setting,value
CCN(CC)CCNc1ccc(C)c2sc3ccccc3c(=O)c12,T/C,"dose: 6.25 mg/kg/injection, schedule: Q01DX009 (ip), vehicle: saline",117 % of control and 118 % of control
same,T/C,"dose: 8.08 mg/kg/injection, schedule: Q01DX Z (ip), vehicle: carboxymethylcellulose (CMC)",96 % of control
same,T/C,"dose: 10.0 mg/kg/injection, schedule: Q01DX Z (ip), vehicle: other",95 % of control
same,T/C,"dose: 12.0 mg/kg/injection, schedule: Q01DX006 (iv), vehicle: saline",98 % of control
same,T/C,"dose: 12.0 mg/kg/injection, schedule: Q01DX Z (im), vehicle: saline",98 % of control
same,T/C,"dose: 12.0 mg/kg/injection, schedule: Q01DX Z (ip), vehicle: saline",101 % of control
same,T/C,"dose: 12.0 mg/kg/injection, schedule: Q01DX Z (sc), vehicle: saline",98 % of control
same,T/C,"dose: 12.5 mg/kg/injection, schedule: Q01DX005 (ip), vehicle: Klucel (hydroxypropylcellulose) (HPC)",96 % of control and 97 % of control
same,T/C,"dose: 12.5 mg/kg/injection, schedule: Q01DX005 (ip), vehicle: water",101 % of control
same,T/C,"dose: 13.0 mg/kg/injection, schedule: Q01DX Z (oral), vehicle: carboxymethylcellulose (CMC)",122 % of control
same,T/C,"dose: 16.17 mg/kg/injection, schedule: Q01DX Z (ip), vehicle: carboxymethylcellulose (CMC)",104 % of control
same,T/C,"dose: 18.0 mg/kg/injection, schedule: Q01DX Z (ip), vehicle: carboxymethylcellulose (CMC)",98 % of control
same,T/C,"dose: 18.0 mg/kg/injection, schedule: Q01DX Z (ip), vehicle: methylcellulose (MC)",107 % of control
same,T/C,"dose: 20.0 mg/kg/injection, schedule: Q01DX Z (ip), vehicle: carboxymethylcellulose (CMC)",100 % of control and 109 % of control
same,T/C,"dose: 20.0 mg/kg/injection, schedule: Q01DX Z (oral), vehicle: carboxymethylcellulose (CMC)",112 % of control
same,T/C,"dose: 24.0 mg/kg/injection, schedule: Q01DX Z (im), vehicle: saline",103 % of control
same,T/C,"dose: 24.0 mg/kg/injection, schedule: Q01DX Z (ip), vehicle: saline",101 % of control
same,T/C,"dose: 24.0 mg/kg/injection, schedule: Q01DX Z (sc), vehicle: saline",98 % of control
same,T/C,"dose: 25.0 mg/kg/injection, schedule: Q01DX005 (ip), vehicle: Klucel (hydroxypropylcellulose) (HPC)",103 % of control and 105 % of control
same,T/C,"dose: 25.0 mg/kg/injection, schedule: Q01DX005 (ip), vehicle: water",112 % of control
same,T/C,"dose: 25.0 mg/kg/injection, schedule: Q01DX010 (ip), vehicle: saline",103 % of control and 113 % of control
same,T/C,"dose: 25.0 mg/kg/injection, schedule: Q01DX Z (ip), vehicle: carboxymethylcellulose (CMC)",109 % of control
same,T/C,"dose: 25.0 mg/kg/injection, schedule: Q04DX003 (ip), vehicle: Klucel (hydroxypropylcellulose) (HPC)",104 % of control and 110 % of control
same,T/C,"dose: 25.0 mg/kg/injection, schedule: Q04DX003 (ip), vehicle: saline",100 % of control
same,T/C,"dose: 25.0 mg/kg/injection, schedule: Q04DX003 (ip), vehicle: water",101 % of control
same,T/C,"dose: 25.88 mg/kg/injection, schedule: Q01DX Z (ip), vehicle: carboxymethylcellulose (CMC)",98 % of control
same,T/C,"dose: 27.0 mg/kg/injection, schedule: Q01DX Z (ip), vehicle: carboxymethylcellulose (CMC)",108 % of control
same,T/C,"dose: 27.0 mg/kg/injection, schedule: Q01DX Z (ip), vehicle: methylcellulose (MC)",105 % of control
same,T/C,"dose: 30.0 mg/kg/injection, schedule: Q01DX Z (ip), vehicle: other",103 % of control
same,T/C,"dose: 32.35 mg/kg/injection, schedule: Q01DX Z (ip), vehicle: carboxymethylcellulose (CMC)",102 % of control and 103 % of control
same,T/C,"dose: 39.0 mg/kg/injection, schedule: Q01DX Z (ip), vehicle: methylcellulose (MC)",164 % of control
same,T/C,"dose: 40.0 mg/kg/injection, schedule: Q01DX Z (ip), vehicle: carboxymethylcellulose (CMC)",114 % of control and 122 % of control and 123 % of control
same,T/C,"dose: 40.0 mg/kg/injection, schedule: Q01DX Z (ip), vehicle: methylcellulose (MC)",100 % of control
same,T/C,"dose: 43.13 mg/kg/injection, schedule: Q01DX Z (ip), vehicle: carboxymethylcellulose (CMC)",113 % of control
same,T/C,"dose: 48.0 mg/kg/injection, schedule: Q01DX Z (im), vehicle: saline",108 % of control
same,T/C,"dose: 48.0 mg/kg/injection, schedule: Q01DX Z (sc), vehicle: saline",101 % of control
same,T/C,"dose: 50.0 mg/kg/injection, schedule: Q01DX005 (ip), vehicle: Klucel (hydroxypropylcellulose) (HPC)",114 % of control
same,T/C,"dose: 50.0 mg/kg/injection, schedule: Q01DX005 (ip), vehicle: water",121 % of control
same,T/C,"dose: 50.0 mg/kg/injection, schedule: Q01DX Z (ip), vehicle: carboxymethylcellulose (CMC)",121 % of control
same,T/C,"dose: 50.0 mg/kg/injection, schedule: Q04DX003 (ip), vehicle: Klucel (hydroxypropylcellulose) (HPC)",102 % of control and 119 % of control
same,T/C,"dose: 50.0 mg/kg/injection, schedule: Q04DX003 (ip), vehicle: saline",102 % of control
same,T/C,"dose: 50.0 mg/kg/injection, schedule: Q04DX003 (ip), vehicle: water",106 % of control
same,T/C,"dose: 58.0 mg/kg/injection, schedule: Q01DX Z (ip), vehicle: methylcellulose (MC)",222 % of control
same,T/C,"dose: 60.0 mg/kg/injection, schedule: Q01DX Z (ip), vehicle: methylcellulose (MC)",104 % of control
same,T/C,"dose: 75.0 mg/kg/injection, schedule: Q01DX001 (ip), vehicle: Klucel (hydroxypropylcellulose) (HPC)",117 % of control
same,T/C,"dose: 75.0 mg/kg/injection, schedule: Q01DX001 (ip), vehicle: saline",96 % of control and 101 % of control
same,T/C,"dose: 75.0 mg/kg/injection, schedule: Q01DX001 (ip), vehicle: water",108 % of control
same,T/C,"dose: 90.0 mg/kg/injection, schedule: Q01DX Z (ip), vehicle: methylcellulose (MC)",100 % of control
same,T/C,"dose: 96.0 mg/kg/injection, schedule: Q01DX Z (im), vehicle: carboxymethylcellulose (CMC)",111 % of control
same,T/C,"dose: 96.0 mg/kg/injection, schedule: Q01DX Z (im), vehicle: saline",120 % of control
same,T/C,"dose: 96.0 mg/kg/injection, schedule: Q01DX Z (ip), vehicle: carboxymethylcellulose (CMC)",111 % of control
same,T/C,"dose: 96.0 mg/kg/injection, schedule: Q01DX Z (ip), vehicle: saline",165 % of control
same,T/C,"dose: 96.0 mg/kg/injection, schedule: Q01DX Z (sc), vehicle: saline",115 % of control
same,T/C,"dose: 100.0 mg/kg/injection, schedule: Q01DX001 (ip), vehicle: saline",104 % of control
same,T/C,"dose: 100.0 mg/kg/injection, schedule: Q01DX005 (ip), vehicle: water",157 % of control
same,T/C,"dose: 100.0 mg/kg/injection, schedule: Q01DX010 (ip), vehicle: saline",151 % of control and 166 % of control
same,T/C,"dose: 100.0 mg/kg/injection, schedule: Q04DX003 (ip), vehicle: saline",93 % of control and 116 % of control
same,T/C,"dose: 129.4 mg/kg/injection, schedule: Q01DX Z (ip), vehicle: carboxymethylcellulose (CMC)",87 % of control
same,T/C,"dose: 140.0 mg/kg/injection, schedule: Q01DX Z (sc), vehicle: carboxymethylcellulose (CMC)",122 % of control
same,T/C,"dose: 145.0 mg/kg/injection, schedule: Q01DX001 (ip), vehicle: water",116 % of control
same,T/C,"dose: 150.0 mg/kg/injection, schedule: Q01DX001 (ip), vehicle: Klucel (hydroxypropylcellulose) (HPC)",107 % of control
same,T/C,"dose: 150.0 mg/kg/injection, schedule: Q01DX001 (ip), vehicle: saline",94 % of control and 104 % of control
same,T/C,"dose: 150.0 mg/kg/injection, schedule: Q01DX001 (ip), vehicle: water",120 % of control
same,T/C,"dose: 200.0 mg/kg/injection, schedule: Q01DX001 (ip), vehicle: saline",110 % of control
same,T/C,"dose: 200.0 mg/kg/injection, schedule: Q01DX009 (ip), vehicle: saline",105 % of control and 110 % of control
same,T/C,"dose: 200.0 mg/kg/injection, schedule: Q01DX010 (ip), vehicle: saline",93 % of control and 103 % of control
same,T/C,"dose: 200.0 mg/kg/injection, schedule: Q01DX Z (oral), vehicle: saline",104 % of control
same,T/C,"dose: 200.0 mg/kg/injection, schedule: Q04DX003 (ip), vehicle: Klucel (hydroxypropylcellulose) (HPC)",176 % of control and 180 % of control
same,T/C,"dose: 200.0 mg/kg/injection, schedule: Q04DX003 (ip), vehicle: saline",117 % of control
same,T/C,"dose: 215.0 mg/kg/injection, schedule: Q01DX Z (im), vehicle: carboxymethylcellulose (CMC)",122 % of control
same,T/C,"dose: 215.0 mg/kg/injection, schedule: Q01DX Z (sc), vehicle: carboxymethylcellulose (CMC)",111 % of control
same,T/C,"dose: 217.0 mg/kg/injection, schedule: Q01DX001 (ip), vehicle: water",121 % of control
same,T/C,"dose: 300.0 mg/kg/injection, schedule: Q01DX001 (ip), vehicle: saline",105 % of control
same,T/C,"dose: 300.0 mg/kg/injection, schedule: Q01DX001 (ip), vehicle: water",121 % of control
same,T/C,"dose: 320.0 mg/kg/injection, schedule: Q01DX Z (im), vehicle: carboxymethylcellulose (CMC)",100 % of control and 114 % of control
same,T/C,"dose: 320.0 mg/kg/injection, schedule: Q01DX Z (sc), vehicle: carboxymethylcellulose (CMC)",102 % of control
same,T/C,"dose: 400.0 mg/kg/injection, schedule: Q01DX001 (ip), vehicle: saline",188 % of control
same,T/C,"dose: 480.0 mg/kg/injection, schedule: Q01DX Z (im), vehicle: carboxymethylcellulose (CMC)",90 % of control
